Source: patent US20190185417A1, “NOVEL ANTIBIOTICS” (priority 2016, published 2019)

What was measured:
Format in all cases: cell-based
[1] = system: Haemophilus influenzae (ATCC 49247); test: MIC by broth microdilution; settings: Table 2, Example 2
Method: (§1) The antibacterial potency of the test article(s) was measured using the in vitro broth microdilution assay under assay conditions described by the Clinical and Laboratory Standards Institute. […] The test substance was dissolved in 100% DMSO (unless stated below), suspended completely by sonication or vortexing, diluted by 2-fold serial titrations in the same vehicle, for a total of 11 test concentrations. A 4 μL aliquot of each dilution was added to 196 μL of broth medium seeded with the organism suspension in wells of a 96 well plate (bacterial count: 2−8×10^5 colony forming units/mL final). The final volume was 200 μL in each well and the final DMSO concentration was 2 percent. Following incubation, the test plates were visually examined and wells were scored for growth or complete growth inhibition to define the minimum inhibitory concentration. Each test substance was evaluated in duplicate and the results below are the duplicate test values. Vehicle-control and an active reference agent were used as blank and positive controls, respectively.

Gram-negative bacteria = test: MIC by broth microdilution, overall statement in words; settings: Example 2, statement in words
Method: as §1, with “DMSO,” for “DMSO (unless stated below),”, “incubation for 1 day at 36° C.,” for “incubation,”, “were reported as” for “below are”, “respectively. Microorganisms tested were Acinetobacter baumannii (ATCC 17978), Enterococcus faecalis (ATCC 29212), Enterococcus faecium VanA (ATCC 700221), Escherichia coli (ATCC 25922), Escherichia coli efflux defective DEL-tolC (JW5503), Heamophilus influenzae (ATCC 49247), Klebsiella pneumoniae (ATCC 43816), Pseudomonas aeruginosa (ATCC 27853), Pseudomonas aeruginosa MDR (NTUH-974), Staphylococcus aureus (ATCC 29213), Staphylococcus aureus MRSA (ATCC 33591) and Streptococcous pneumoniae (ATCC 46919). H. influenzae was grown in Haemophilus Test Medium and S. pneumoniae was grown in cation adjusted Muller-Hinton Broth II with 5% lysed horse blood. All other microorganisms were grown in cation adjusted Muller-Hinton Broth II.” for “respectively.”
as §1

[2] = system: Acinetobacter baumannii (ATCC 17978); test: MIC by broth microdilution; settings: Table 2, Example 2
Method: as §1, with “DMSO,” for “DMSO (unless stated below),”, “incubation for 1 day at 36° C.,” for “incubation,”, “were reported as” for “below are”, “respectively. Microorganisms tested were Acinetobacter baumannii (ATCC 17978), Enterococcus faecalis (ATCC 29212), Enterococcus faecium VanA (ATCC 700221), Escherichia coli (ATCC 25922), Escherichia coli efflux defective DEL-tolC (JW5503), Heamophilus influenzae (ATCC 49247), Klebsiella pneumoniae (ATCC 43816), Pseudomonas aeruginosa (ATCC 27853), Pseudomonas aeruginosa MDR (NTUH-974), Staphylococcus aureus (ATCC 29213), Staphylococcus aureus MRSA (ATCC 33591) and Streptococcous pneumoniae (ATCC 46919). H. influenzae was grown in Haemophilus Test Medium and S. pneumoniae was grown in cation adjusted Muller-Hinton Broth II with 5% lysed horse blood. All other microorganisms were grown in cation adjusted Muller-Hinton Broth II.” for “respectively.”
as §1

[3] = system: Klebsiella pneumoniae (ATCC 43816); test: MIC by broth microdilution; settings: Table 2, Example 2
Method: as §1, with “DMSO,” for “DMSO (unless stated below),”, “incubation for 1 day at 36° C.,” for “incubation,”, “were reported as” for “below are”, “respectively. Microorganisms tested were Acinetobacter baumannii (ATCC 17978), Enterococcus faecalis (ATCC 29212), Enterococcus faecium VanA (ATCC 700221), Escherichia coli (ATCC 25922), Escherichia coli efflux defective DEL-tolC (JW5503), Heamophilus influenzae (ATCC 49247), Klebsiella pneumoniae (ATCC 43816), Pseudomonas aeruginosa (ATCC 27853), Pseudomonas aeruginosa MDR (NTUH-974), Staphylococcus aureus (ATCC 29213), Staphylococcus aureus MRSA (ATCC 33591) and Streptococcous pneumoniae (ATCC 46919). H. influenzae was grown in Haemophilus Test Medium and S. pneumoniae was grown in cation adjusted Muller-Hinton Broth II with 5% lysed horse blood. All other microorganisms were grown in cation adjusted Muller-Hinton Broth II.” for “respectively.”
as §1

[4] = system: Pseudomonas aeruginosa (ATCC 27853); test: MIC by broth microdilution; settings: Table 2, Example 2
Method: as §1, with “DMSO,” for “DMSO (unless stated below),”, “incubation for 1 day at 36° C.,” for “incubation,”, “were reported as” for “below are”, “respectively. Microorganisms tested were Acinetobacter baumannii (ATCC 17978), Enterococcus faecalis (ATCC 29212), Enterococcus faecium VanA (ATCC 700221), Escherichia coli (ATCC 25922), Escherichia coli efflux defective DEL-tolC (JW5503), Heamophilus influenzae (ATCC 49247), Klebsiella pneumoniae (ATCC 43816), Pseudomonas aeruginosa (ATCC 27853), Pseudomonas aeruginosa MDR (NTUH-974), Staphylococcus aureus (ATCC 29213), Staphylococcus aureus MRSA (ATCC 33591) and Streptococcous pneumoniae (ATCC 46919). H. influenzae was grown in Haemophilus Test Medium and S. pneumoniae was grown in cation adjusted Muller-Hinton Broth II with 5% lysed horse blood. All other microorganisms were grown in cation adjusted Muller-Hinton Broth II.” for “respectively.”
as §1

[5] = system: Pseudomonas aeruginosa, MDR (NTUH-974); test: MIC by broth microdilution; settings: Table 2, Example 2
Method: as §1, with “DMSO,” for “DMSO (unless stated below),”, “incubation for 1 day at 36° C.,” for “incubation,”, “were reported as” for “below are”, “respectively. Microorganisms tested were Acinetobacter baumannii (ATCC 17978), Enterococcus faecalis (ATCC 29212), Enterococcus faecium VanA (ATCC 700221), Escherichia coli (ATCC 25922), Escherichia coli efflux defective DEL-tolC (JW5503), Heamophilus influenzae (ATCC 49247), Klebsiella pneumoniae (ATCC 43816), Pseudomonas aeruginosa (ATCC 27853), Pseudomonas aeruginosa MDR (NTUH-974), Staphylococcus aureus (ATCC 29213), Staphylococcus aureus MRSA (ATCC 33591) and Streptococcous pneumoniae (ATCC 46919). H. influenzae was grown in Haemophilus Test Medium and S. pneumoniae was grown in cation adjusted Muller-Hinton Broth II with 5% lysed horse blood. All other microorganisms were grown in cation adjusted Muller-Hinton Broth II.” for “respectively.”
as §1

[6] = system: Escherichia coli (ATCC 25922); test: MIC by broth microdilution; settings: Table 2, Example 2
Method: as §1, with “DMSO,” for “DMSO (unless stated below),”, “incubation for 1 day at 36° C.,” for “incubation,”, “were reported as” for “below are”, “respectively. Microorganisms tested were Acinetobacter baumannii (ATCC 17978), Enterococcus faecalis (ATCC 29212), Enterococcus faecium VanA (ATCC 700221), Escherichia coli (ATCC 25922), Escherichia coli efflux defective DEL-tolC (JW5503), Heamophilus influenzae (ATCC 49247), Klebsiella pneumoniae (ATCC 43816), Pseudomonas aeruginosa (ATCC 27853), Pseudomonas aeruginosa MDR (NTUH-974), Staphylococcus aureus (ATCC 29213), Staphylococcus aureus MRSA (ATCC 33591) and Streptococcous pneumoniae (ATCC 46919). H. influenzae was grown in Haemophilus Test Medium and S. pneumoniae was grown in cation adjusted Muller-Hinton Broth II with 5% lysed horse blood. All other microorganisms were grown in cation adjusted Muller-Hinton Broth II.” for “respectively.”
as §1

[7] = system: Escherichia coli, efflux defective DEL-tolC (JW5503); test: MIC by broth microdilution; settings: Table 2, Example 2
Method: as §1, with “DMSO,” for “DMSO (unless stated below),”, “incubation for 1 day at 36° C.,” for “incubation,”, “were reported as” for “below are”, “respectively. Microorganisms tested were Acinetobacter baumannii (ATCC 17978), Enterococcus faecalis (ATCC 29212), Enterococcus faecium VanA (ATCC 700221), Escherichia coli (ATCC 25922), Escherichia coli efflux defective DEL-tolC (JW5503), Heamophilus influenzae (ATCC 49247), Klebsiella pneumoniae (ATCC 43816), Pseudomonas aeruginosa (ATCC 27853), Pseudomonas aeruginosa MDR (NTUH-974), Staphylococcus aureus (ATCC 29213), Staphylococcus aureus MRSA (ATCC 33591) and Streptococcous pneumoniae (ATCC 46919). H. influenzae was grown in Haemophilus Test Medium and S. pneumoniae was grown in cation adjusted Muller-Hinton Broth II with 5% lysed horse blood. All other microorganisms were grown in cation adjusted Muller-Hinton Broth II.” for “respectively.”
as §1

Row | Compound | MIC [1] | effectiveness against the bacteria of Table 2 (Gram-negative bacteria) | MIC [2] | MIC [3] | MIC [4] | MIC [5] | MIC [6] | MIC [7]
1 | CN(C)Cc1ccc(/C=C/c2cc(/C=C/c3ccc(CC(N)=O)cc3)cc(/C=C/c3ccc(CC(N)=O)cc3)c2)cc1 [Compound 15] | >128 µg/mL | ineffective | >128 µg/mL | >128 µg/mL | >128 µg/mL | >128 µg/mL | >128 µg/mL | >128 µg/mL
2 | O=[N+]([O-])c1ccc(CCc2cc(CCc3ccc([N+](=O)[O-])cc3)cc(CCc3ccc([N+](=O)[O-])cc3)c2)cc1 [Compound 8 (TSB036)] | >32.0 µg/mL |  | >32.0 µg/mL | >32.0 µg/mL | >32.0 µg/mL | >32.0 µg/mL | >32.0 µg/mL | >32.0 µg/mL
3 | N#Cc1ccc(/C=C/c2cc(/C=C/c3ccc(C#N)cc3)cc(/C=C/c3ccc(C#N)cc3)c2)cc1 [Compound 3] | >128 µg/mL |  | >128 µg/mL | >128 µg/mL | >128 µg/mL | >128 µg/mL | >128 µg/mL | >128 µg/mL
4 | CN(C)Cc1ccc(/C=C/c2cc(/C=C/c3ccc(CC(N)=O)cc3)cc(/C=C/c3ccc(CC(=O)O)cc3)c2)cc1 [Compound 14] | >128 µg/mL | ineffective | >128 µg/mL | >128 µg/mL | >128 µg/mL | >128 µg/mL | >128 µg/mL | >128 µg/mL
5 | NC(=O)Cc1ccc(/C=C/c2cc(/C=C/c3ccc(CC(N)=O)cc3)cc(/C=C/c3ccc(CC(N)=O)cc3)c2)cc1 [Compound 17] | >128 µg/mL |  | >128 µg/mL | >128 µg/mL | >128 µg/mL | >128 µg/mL | >128 µg/mL | >128 µg/mL
6 | Nc1ccc(CCc2cc(CCc3ccc(N)cc3)cc(CCc3ccc(N)cc3)c2)cc1 [Compound 2 (TSB014)] | >32.0 µg/mL |  | >32.0 µg/mL | >32.0 µg/mL | >32.0 µg/mL | >32.0 µg/mL | >32.0 µg/mL | >32.0 µg/mL
7 | CN(C)c1ccc(CCc2cc(CCc3ccc(N(C)C)cc3)cc(CCc3ccc(N(C)C)cc3)c2)cc1 [Compound 11 (TSB010)] | >32.0 µg/mL |  | >32.0 µg/mL | >32.0 µg/mL | >32.0 µg/mL | >32.0 µg/mL | >32.0 µg/mL | >32.0 µg/mL
8 | N#Cc1ccc(CCc2cc(CCc3ccc(C#N)cc3)cc(CCc3ccc(C#N)cc3)c2)cc1 [Compound 4 (TSB064)] | >32.0 µg/mL |  | >32.0 µg/mL | >32.0 µg/mL | >32.0 µg/mL | >32.0 µg/mL | >32.0 µg/mL | >32.0 µg/mL
